Tests used:
Settings in all cases: NADPH co-substrate
[1] = target: T1, PcAad1p (Phanerodontia chrysosporium, UniProt Q01752); assay: spectrophotometric NADPH consumption at […] nm; type: biochemical
T1 construct: full length, plasmid pGS-21a-PcAad1, N-terminal His6-GST and C-terminal His6 tags kept, E. coli BL21 Star; coding primer starts ATGAACATCTGGGCACCCG (MNIWAP)
T1 sequence (Q01752 1-385): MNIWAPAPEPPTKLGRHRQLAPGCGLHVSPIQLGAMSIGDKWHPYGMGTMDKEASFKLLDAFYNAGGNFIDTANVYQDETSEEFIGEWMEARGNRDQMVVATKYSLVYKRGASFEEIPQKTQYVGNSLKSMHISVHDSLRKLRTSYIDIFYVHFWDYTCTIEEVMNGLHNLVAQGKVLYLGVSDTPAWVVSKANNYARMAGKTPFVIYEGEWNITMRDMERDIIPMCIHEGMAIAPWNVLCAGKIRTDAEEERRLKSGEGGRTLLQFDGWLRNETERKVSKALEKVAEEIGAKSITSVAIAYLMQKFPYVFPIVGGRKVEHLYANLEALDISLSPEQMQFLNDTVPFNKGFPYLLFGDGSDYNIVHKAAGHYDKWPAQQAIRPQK

[2] = target: T2, ScAad10^-35Cp (Saccharomyces cerevisiae, UniProt P47182); assay: spectrophotometric NADPH consumption at […] nm; type: biochemical
T2 construct: gene AAD10; resurrected pseudogene: in-frame upstream 264 bp (88 residues) restored to annotated Aad10, stop TAG to CAG (Gln) at nt -35; annotated natural ORF (YJR155W) lacks these residues; N-terminal His6-GST and C-terminal His6 tags, E. coli BL21 Star
T2 sequence (P47182 1-288): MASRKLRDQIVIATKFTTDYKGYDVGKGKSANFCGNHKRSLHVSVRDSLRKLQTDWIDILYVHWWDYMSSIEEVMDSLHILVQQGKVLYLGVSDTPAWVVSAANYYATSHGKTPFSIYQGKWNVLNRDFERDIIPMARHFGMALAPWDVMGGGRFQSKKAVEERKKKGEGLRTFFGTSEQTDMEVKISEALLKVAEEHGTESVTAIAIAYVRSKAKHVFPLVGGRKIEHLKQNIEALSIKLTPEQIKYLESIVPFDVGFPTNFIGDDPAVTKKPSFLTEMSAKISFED

[3] = substrate: O=Cc1ccc(CO)o1; assay: purified protein; type: biochemical, Phanerodontia chrysosporium

O=CCc1ccccc1 [phenylacetaldehyde]
Km [1]: 527 ± 72.5 µM

COc1ccc(C=O)cc1 [4-methoxybenzaldehyde]
Km [1]: 87.3 ± 116 µM

O=Cc1ccc(CO)o1 [hydroxymethylfurfural]
Km [2]: 608 ± 246 µM

B1: PcAad1p (Phanerodontia chrysosporium) (protein)
chain: MNIWAPAPEPPTKLGRHRQLAPGCGLHVSPIQLGAMSIGDKWHPYGMGTMDKEASFKLLDAFYNAGGNFIDTANVYQDETSEEFIGEWMEARGNRDQMVVATKYSLVYKRGASFEEIPQKTQYVGNSLKSMHISVHDSLRKLRTSYIDIFYVHFWDYTCTIEEVMNGLHNLVAQGKVLYLGVSDTPAWVVSKANNYARMAGKTPFVIYEGEWNITMRDMERDIIPMCIHEGMAIAPWNVLCAGKIRTDAEEERRLKSGEGGRTLLQFDGWLRNETERKVSKALEKVAEEIGAKSITSVAIAYLMQKFPYVFPIVGGRKVEHLYANLEALDISLSPEQMQFLNDTVPFNKGFPYLLFGDGSDYNIVHKAAGHYDKWPAQQAIRPQK
notes: full length, plasmid pGS-21a-PcAad1, N-terminal His6-GST and C-terminal His6 tags kept, E. coli BL21 Star; coding primer starts … (MNIWAP)
Km [3]: 171 ± 36.7 µM
Vmax [3]: 2.40 ± 0.27 in micromoles per minute per mg
